Consider 5 molecules from patent publication US4833160A, “3-(3,5-di-tert-butyl-4-hydroxy benzylidene)-2-pyrrolidone and substituted derivatives thereof” (Eisai Co., Ltd., priority 1985, dated 1989).

Where two headings read alike, the source gives them in different places. Where only a bound is given, the exact number is not on record here.

Data set [1] can be described thus: Acute Toxicity Test, rats. Conditions: rat, in vivo. As for the experimental part: (§1) LD 50 of the compound B, falling within the scope of the invention, was investigated in respect to acute toxicity, using rats and mice.
(§2) *Values were calculated according to BehrensKarber method. The oral
(§3) administration was conducted after a fasting treatment for 17 to 24 hours

Data set [2] is described as follows: Effect of inducing gastric ulcer. The class given is in vivo, male Fisher rat. The conditions noted are these: rat, oral, fasted 24 hours, after six hours, read-out: UD50 (50% ulcer inducing dose). As for the experimental part:
A male Fisher rat aged seven weeks was kept fasting for 24 hours and then each test compound suspended in a 5% aqueous solution of gum arabic was orally administered thereto.

Data set [3] deals with adjuvant inflammation. Kind of data set: Effect of lowering local surface temperature at inflammation (adjuvant inflammation, butter bacillus, hind foot). The class given is in vivo, male Fisher rat. Conditions: Rattus norvegicus, 6 h, read-out: Dose (mg/kg) required for lowering local temperature at inflammatory site by at least 2° C. As for the experimental part: 0.05 ml of a suspension of butter bacillus in liquid paraffin (10 mg/ml) was injected into the sole of the right hind foot of a male Fisher rat aged six weeks to thereby induce adjuvant inflammation. After three to five days, the surface temperature of the inflammatory foot was constantly higher by 8° to 10° C. than that of a normal foot. The test compounds as described hereinbelow and control compounds (i.e. indomethacin and pyroxycam) were each suspended in a 5% aqueous solution of gum arabic and orally administered to the rat in a dose of 5 ml/kg body weight. The local surface temperature of the inflammatory site was determined after two, four and six hours according to the method of H. Shirota et al. (cf. J. Pharmacol. Methods, 12, 35-43 (1984)). The dose required for lowering the surface temperature by at least 2° C. below that prior to the administration was calculated by averaging data of two animals, thus determining the anti-inflammatory titer of each test compound.

Data set [4] has as its system carrageenan edema at foot-sole. The data set can be described thus: Effect of suppressing carrageenan edema at foot-sole. The class given is in vivo, Male Fisher rats. The conditions noted are these: 10 mg/kg, one hour before carrageenan; volume measured three hours after carrageenan injection; groups of five animals. As for the experimental part: Male Fisher rats aged five weeks were classified into groups each having five animals. Each test compound was suspended in a 5% aqueous solution of gum arabic and administered to each rat in a dose of […] body weight. After one hour, a 1% carrageenan solution was injected into the sole of the right hind foot of the animal to thereby induce inflammation. Three hours after the carrageenan injection, the volume of the sole of each hind foot of the animal was measured to calculate the volume-gain of the foot-sole to which carrageenan was injected. The obtained data was compared with those of the control groups, thus determining the suppression ratio of the test compound. The same test compounds as used in Pharmacological Example 1 were used.
In general terms: Carrageenan injected into the paw causes an acute inflammation.

Data set [5] can be described thus: Acute Toxicity Test, mice. The class given is in vivo. Conditions: mouse, in vivo. As for the experimental part:
as §1, §2, §3

The subject of data set [6] is mice. The data set can be described thus: Acute Toxicity Test, mice. The class given is in vivo. The conditions noted are these: oral, male mice, after fasting 17 to 24 hours. As for the experimental part:
as §1, §2, §3

Setting [7] is: oral, suspended in 5% gum arabic, temperature after two, four and six hours, averaging data of two animals.

Consider `CON1CCC(=Cc2cc(C(C)(C)C)c(O)c(C(C)(C)C)c2)C1=O` [Compound B, N-methoxy-3-(3,5-di-tert-butyl-4-hydroxybenzylidene)-2-pyrrolidone], for which the LD50 in data set [1] (ip, abdominal, female rats, calculated according to Behrens-Karber method (*)) was 46.9 mg/kg; in data set [1] (ip, abdominal, male rats, calculated according to Behrens-Karber method (*)) it was 96.7 mg/kg; in data set [1] (po, female rats, after fasting 17 to 24 hours, calculated according to Behrens-Karber method (*)) it was 161 mg/kg; in data set [1] (po, male rats, after fasting 17 to 24 hours), 354 mg/kg; in data set [1] (sc, hypodermic, female rats, confidence range 124~476), 291 mg/kg; in data set [1] (sc, hypodermic, male rats, calculated according to Behrens-Karber method (*)), 806 mg/kg. Further, the LD50 in data set [5] (ip, abdominal, female mice, confidence range 443.9~1549.3) was 805 mg/kg; in data set [5] (ip, abdominal, male mice, confidence range 523~2270) it was 1070 mg/kg; in data set [5] (po, female mice, after fasting 17 to 24 hours), 6870 mg/kg; in data set [5] (sc, hypodermic, female mice), more than 4000 mg/kg; in data set [5] (sc, hypodermic, male mice), more than 4000 mg/kg; in data set [6], 4000~2000. For the same molecule, in data set [2] (in vivo), the TD50 at 6 h was found to be 473 mg/kg. Also, the minimal effective dose in data set [3] (po) was 0.3 mg/kg. Further, in data set [4], the Suppression ratio stood at 36.4.
For the molecule `CN1C(C(=O)Nc2ccccn2)=C(O)c2ccccc2S1(=O)=O` [Piroxicam, reference compound], in data set [2] (in vivo), the TD50 at 6 h turned out to be 23.1 mg/kg. Further, the minimal effective dose in data set [3] (setting [7]) was determined as 0.3 mg/kg.
On to `CN1CCC(=Cc2cc(C(C)(C)C)c(O)c(C(C)(C)C)c2)C1=O` [Compound A, N-methyl-3-(3,5-di-tert-butyl-4-hydroxybenzylidene)-2-pyrrolidone], for which, in data set [3] (setting [7]), the minimal effective dose stood at 1 mg/kg. Moreover, the Suppression ratio in data set [4] is reported as 36.1.
Take `CC(C)(C)c1cc(C=C2CCNC2=O)cc(C(C)(C)C)c1O` [Compound C, 3-(3,5-di-tert-butyl-4-hydroxybenzylidene)-2-pyrrolidone]: the TD50 at 6 h in data set [2] (stomach) was found to be 75.8 mg/kg. In addition, in data set [3] (setting [7]), the minimal effective dose was determined as 0.3 mg/kg. Besides, the Suppression ratio in data set [4] stood at 38.5.
`COc1ccc2c(c1)c(CC(=O)O)c(C)n2C(=O)c1ccc(Cl)cc1` [Indomethacin, indomethacin, reference compound]: the TD50 at 6 h in data set [2] (in vivo) is 7.8 mg/kg. For the same molecule, the minimal effective dose in data set [3] (po) turned out to be 0.3 mg/kg. Also, the Suppression ratio in data set [4] came to 37.7.

The term LD50 denotes the dose at which mortality reaches 50%.
